From the NIST ThermoML archive (doi:10.1016/j.jct.2011.02.008)

Assay: xn = mol fraction of the nth substance listed
Details: Liquid, Vibrating tube method

COC(=O)c1ccccc1 [methyl benzoate] + C1CCCCC1
mass density [kg/m3]
Details | x1 = 0.0985 | x1 = 0.1963 | x1 = 0.2939 | x1 = 0.3942 | x1 = 0.4955 | x1 = 0.596 | x1 = 0.6975 | x1 = 0.7993 | x1 = 0.8982
338.15 K, 45000 kPa | – | – | – | – | – | 961.4 | 991.1 | 1019.6 | 1047.5
338.15 K, 50000 kPa | 810.6 | 841.5 | 872.3 | 903.1 | 933.8 | 964.7 | 994.4 | 1022.8 | 1050.5
338.15 K, 55000 kPa | 814.1 | 844.9 | 875.7 | 906.4 | 937.1 | 967.9 | 997.5 | 1025.8 | 1053.6
338.15 K, 60000 kPa | 817.3 | 848.1 | 878.8 | 909.7 | 940.1 | 971.1 | 1000.4 | 1028.6 | 1056.3
348.15 K, 100 kPa | 756.3 | 788.1 | 820 | 852.1 | 884.1 | 916.3 | 947.3 | 976.9 | 1005.9
348.15 K, 1000 kPa | 757.4 | 789.2 | 820.9 | 853 | 885 | 917.1 | 948.1 | 977.7 | 1006.7
348.15 K, 5000 kPa | 762.1 | 793.8 | 825.6 | 857.4 | 889.1 | 921.1 | 951.8 | 981.3 | 1010.1
348.15 K, 10000 kPa | 767.9 | 799.3 | 830.9 | 862.4 | 894 | 925.8 | 956.3 | 985.5 | 1014.3
348.15 K, 15000 kPa | 773.1 | 804.4 | 835.8 | 867.2 | 898.6 | 930.2 | 960.6 | 989.7 | 1018.2
348.15 K, 20000 kPa | 778.1 | 809.3 | 840.5 | 871.8 | 903.1 | 934.4 | 964.7 | 993.6 | 1022
348.15 K, 25000 kPa | 782.8 | 813.9 | 845 | 876.1 | 907.3 | 938.5 | 968.7 | 997.5 | 1025.7
348.15 K, 30000 kPa | 787.2 | 818.2 | 849.3 | 880.3 | 911.3 | 942.4 | 972.5 | 1001.1 | 1029.3
348.15 K, 35000 kPa | 791.5 | 822.4 | 853.4 | 884.2 | 915.2 | 946.2 | 976.1 | 1004.7 | 1032.7
348.15 K, 40000 kPa | 795.5 | 826.4 | 857.3 | 888.1 | 918.9 | 949.9 | 979.7 | 1008.2 | 1036.1
348.15 K, 45000 kPa | 799.5 | 830.3 | 861.1 | 891.8 | 922.6 | 953.4 | 983.2 | 1011.5 | 1039.4
348.15 K, 50000 kPa | 803.2 | 834 | 864.7 | 895.4 | 926.1 | 956.9 | 986.5 | 1014.8 | 1042.5
348.15 K, 55000 kPa | 806.8 | 837.6 | 868.3 | 898.9 | 929.5 | 960.2 | 989.8 | 1018 | 1045.7
348.15 K, 60000 kPa | 810.1 | 840.9 | 871.4 | 902.1 | 932.6 | 963.3 | 992.7 | 1020.9 | 1048.5
358.15 K, 100 kPa | 746 | 778 | 809.9 | 842 | 874.1 | 906.3 | 937.3 | 967 | 996.1
358.15 K, 1000 kPa | 747.1 | 779.1 | 811 | 843.1 | 875.1 | 907.3 | 938.3 | 967.9 | 996.9
358.15 K, 5000 kPa | 752.5 | 784.2 | 815.9 | 847.7 | 879.4 | 911.4 | 942 | 971.7 | 1000.6
358.15 K, 10000 kPa | 757.8 | 790 | 821.5 | 853.1 | 884.7 | 916.4 | 947 | 976.2 | 1004.9
358.15 K, 15000 kPa | 764.1 | 795.5 | 826.7 | 858.2 | 889.6 | 921.1 | 951.4 | 980.6 | 1009
358.15 K, 20000 kPa | 769.4 | 800.6 | 831.8 | 863 | 894.2 | 925.6 | 955.8 | 984.7 | 1013
358.15 K, 25000 kPa | 774.3 | 805.5 | 836.5 | 867.6 | 898.6 | 929.9 | 960 | 988.7 | 1016.9
358.15 K, 30000 kPa | 779 | 810 | 841 | 871.8 | 902.9 | 934 | 963.9 | 992.6 | 1020.6
358.15 K, 35000 kPa | 783.5 | 814.4 | 845.3 | 876.1 | 907 | 938 | 967.8 | 996.3 | 1024.2
358.15 K, 40000 kPa | 787.7 | 818.6 | 849.4 | 880.1 | 910.9 | 941.8 | 971.5 | 999.9 | 1027.8
358.15 K, 45000 kPa | 791.8 | 822.6 | 853.3 | 884 | 914.7 | 945.5 | 975.1 | 1003.4 | 1031.2
358.15 K, 50000 kPa | 795.7 | 826.5 | 857.1 | 887.8 | 918.3 | 949 | 978.6 | 1006.8 | 1034.5
358.15 K, 55000 kPa | 799.5 | 830.2 | 860.8 | 891.4 | 921.9 | 952.5 | 982 | 1010.1 | 1037.8
358.15 K, 60000 kPa | 802.9 | 832.8 | 864.2 | 894.6 | 925.1 | 955.7 | 985 | 1013.1 | 1040.9
